From patent publication US20190151625A1, “DRUG DELIVERY APPARATUS AND METHOD” (INNOVENTIONS LTD., priority 2016, published 2019)

Assay: Release of lidocaine dissolved in oil through the silicone balloon wall of device 20
Assay type: physicochemical
Protocol: Experiments were performed using Lidocaine dissolved in oily substances using two different expansion volumes (one with 10 ml, the other with 16 ml) of the balloon of the device 20.
A. The balloon was expanded by injection of 10 ml of the oily solution into the balloon. A series of 4 experiments using lidocaine dissolved in oil was performed. The results were as follows: • 1. After 28 days—436 mg out of 500 mg was released. • 2. After 29 days—all the 500 mg was released (out of 500 mg). • 3. After 22 days—all the 500 mg was released (out of 500 mg). • 4. After 63 days—all the 1000 mg was released (out of 1000 mg).
B. The balloon was expanded by injection of 16 ml of the oily solution into the balloon. 2 groups and a series of 3 experiments using lidocaine dissolved in oil were performed. The results were as follows: • 1. After 21 days: —all the 500 mg was released (out of 500 mg) • […] was released, out of 1000 mg • 1086 mg was released, out of […] • 2. After 84 days—all the 500 mg was released (out of 500 mg) • all the 1000 mg was released (out of 1000 mg) • all the 1500 mg was released (out of 1500 mg)

CCN(CC)CC(=O)Nc1c(C)cccc1C [Lidocaine]
release through the silicone balloon wall (Lidocaine dissolved in oily substances, balloon expansion volumes 10 ml and 16 ml): released in large quantities | amount released (balloon expanded with 10 ml oily solution, experiment 1, after 28 days, out of 500 mg): 436 mg | amount released (balloon expanded with 10 ml oily solution, experiment 2, after 29 days, out of 500 mg): 500 mg | amount released (balloon expanded with 10 ml oily solution, experiment 3, after 22 days, out of 500 mg): 500 mg | amount released (balloon expanded with 10 ml oily solution, experiment 4, after 63 days, out of 1000 mg): 1000 mg | amount released (balloon expanded with 16 ml oily solution, after 21 days, out of 500 mg): 500 mg | amount released (balloon expanded with 16 ml oily solution, after 21 days, out of 1500 g): 1086 mg | amount released (balloon expanded with 16 ml oily solution, after 84 days, out of 500 mg): 500 mg | amount released (balloon expanded with 16 ml oily solution, after 84 days, out of 1000 mg): 1000 mg | amount released (balloon expanded with 16 ml oily solution, after 84 days, out of 1500 mg): 1500 mg
